Data taken from US20150368617A1, “METHOD FOR FORMING ENDOTHELIAL CELLS” (Korea Advanced Institute of Science and Technology (KAIST), priority 2012, published 2015).

Columns and labels:
Assay type in all cases: cell-based, mouse
[1] = system: ICAM2+ ECs; assay: Expansion of purified ICAM2+ ECs for 2 days in 2D Matrigel system
Experimental: FIGS. 14A-14G. ROCK suppression continuously promotes the expansion of ECs. (FIG. 14A) ICAM2+ ECs were further incubated with PBS (Control), Y27632 (10┌ M), VEGF-A (50 ng/ml; VA) or Y27632 (10┌ M) plus VEGF-A (50 ng/ml) for 2 days, and analyses were performed at day 8.5. (FIG. 14B) Immunofluorescence images showing CD144+ EC colonies, ┌ SMA+MCs, and DAPI+ nuclei. Scale bars represent 100┌ m. (FIG. 14C) Representative FACS analysis of CD31+/CD144+ ECs. (FIG. 14D) % of CD31+/CD144+ EC population. Each group, n=3. *p<0.01 versus Control. (FIG. 14E) Relative cell number of ICAM2+ ECs. Each group, n=3. *p<0.01 versus Control; ^#p<0.01 versus VEGF-A. (FIG. 14F) Relative population of CD31+/CD144+ ECs. Population of CD31+/CD144+ ECs grown without VEGF-A and Y27632 was regarded as 100%. Each group, n=3. *p<0.01 versus Control; ^#p<0.01 versus VEGF-A. (FIG. 14G) % of adherent ICAM2+ECs onto plate at 6 hrs. Each group, n=3. *p<0.05 versus VEGF-A.
E14tg2a ESC cell line was a generous gift from Dr. Jun K. Yamashita (Kyoto University), and R1 ESC cell line was purchased from American Type Cell Culture. Mouse iPSC derived from FVB strain was a generous gift from Drs. Hyun-Jai Cho and Hyo-Soo Kim (Seoul National University Hospital). […]

[2] = system: VYI-ECs; assay: Scratch wound healing assay; conditions: addition of Y27632 10 μM to VEGF-A
Experimental: The purified VYI-ECs were plated on Matrigel-coated plates and incubated in differentiation medium until confluent. A single scratch wound was made on the cell-plated surface with a 200┌ l disposable pipette tip, and the medium was exchanged with a new medium containing either VEGF-A (50 ng/ml), Y27632 (10┌ M), or both. The wound was allowed to heal for 12 hrs. Phase contrast images were taken at 0, 3, 6, and 12 hrs. The average extent of wound closure was evaluated by measuring the wound area using ImageJ software.

[3] = system: αMHC GFP+CMs; assay: Sorted αMHC-GFP+ CMs in feeder-free condition; conditions: Y27632 10 μM
Experimental: Analysis and sorting for CMs were performed at day 10.5. We harvested differentiated Flk1+ MPCs on OP9 cells with 0.25% trypsin-EDTA or dissociation buffer (Invitrogen). Cardiac troponin-T (cTnT)+ and ┌ smooth muscle actin (SMA)+ cells were analyzed after permeabilization using Cytofix/Cytoperm solution (BD Biosciences) for 15 min. After permeabilization, the cells were incubated for 30 min with anti-mouse cTnT (NeoMarkers) monoclonal antibody. After washing in 10% Perm/Wash buffer (BD Biosciences), the cells were incubated for 10 min with Alexa Fluor® 647 anti-mouse IgG (Invitrogen). After washing in 10% Perm/Wash buffer (BD Biosciences), the cells were incubated for 30 min with Cy3-conjugated anti-┌ SMA (clone 1A4, Sigma). We sorted out CMs using ┌ MHC GFP. Sorted Flk1+ MPCs on OP9 cells were harvested with 0.25% trypsin-EDTA or dissociation buffer (Invitrogen) and cells were washed using phosphate buffered saline/10% FBS twice. Dead cells were excluded using 7-aminoactinomycin D (Invitrogen). Then, we sorted out ┌ MHC GFP+CMs and plated on to 0.1% gelatin coated dish in the differentiation medium. The medium was changed every 2 days. Analyses and sorting were performed by FACS Aria II (Beckton Dickinson). Data were analyzed using FlowJo Version 7.5.4 software (TreeStar). […]

C[C@@H](N)[C@H]1CC[C@H](C(=O)Nc2ccncc2)CC1 [Y27632]
decrease of CD31+/CD144+ EC population from the initial population of ˜90% ([1]; day 8.5, agent alone, ˜30% without either agent): ~22% | increase of total cell number ([1]; day 8.5, compared to Control without VEGF-A and Y27632): ~1.8 fold | increase of cell invasion into the wound region [2]: 2.1 fold | self-beating CMs compared to control ([3]; day 12.5): much more self-beating CMs | area of self-beating CMs compared control ([3]; day 14.5, confluent state): ~2.8 fold
